Laboratory results as given in patent US20250388589A1, “TRICYCLIC HETEROCYCLIC DERIVATIVES, COMPOSITIONS AND USES THEREOF” (Danatlas Pharmaceuticals Co., Ltd., priority 2022, published 2025).

Columns and labels:
[1] = target: hPARG (C-terminal His6-tag) (Homo sapiens (Human), UniProt Q86W56); test: PARG Enzymatic Activity Assay (HTRF); format: biochemical; conditions: hPARG 65 pM final, biotinylated-NAD ribosylated PARP1 8 nM final
Outline: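 Readout is time-resolved fluorescence at 620 and 665 nm after 60 min RT detection with streptavidin-Eu cryptate and anti-6HIS-XL665; IC50 by 4-parameter fit, 1% DMSO and no-enzyme controls. Reaction: 8 nM final ribosylated PARP1 substrate for 10 min RT, following 60 min RT enzyme (65 pM)–compound preincubation in Tris pH 7.4 buffer with EDTA, DTT, KCl.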

Kuramochi cell line = test: Cell Viability Assay (Cell Titer-Glo, 7 days); format: cell-based; conditions: 168 h, Kuramochi cells, 7 days incubation, read-out: PARG Cell viability (IC50)
Outline: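 IC50 from a four-parameter fit of CellTiter-Glo luminescence, scaled between DMSO-treated (high) and medium-only (low) wells. Kuramochi cells (400/well, RPMI/10% FBS) exposed 7 days at 37 °C to 9 concentrations, 3-fold steps, in duplicate.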

Sequence of hPARG (C-terminal His6-tag) (Q86W56 whole entry): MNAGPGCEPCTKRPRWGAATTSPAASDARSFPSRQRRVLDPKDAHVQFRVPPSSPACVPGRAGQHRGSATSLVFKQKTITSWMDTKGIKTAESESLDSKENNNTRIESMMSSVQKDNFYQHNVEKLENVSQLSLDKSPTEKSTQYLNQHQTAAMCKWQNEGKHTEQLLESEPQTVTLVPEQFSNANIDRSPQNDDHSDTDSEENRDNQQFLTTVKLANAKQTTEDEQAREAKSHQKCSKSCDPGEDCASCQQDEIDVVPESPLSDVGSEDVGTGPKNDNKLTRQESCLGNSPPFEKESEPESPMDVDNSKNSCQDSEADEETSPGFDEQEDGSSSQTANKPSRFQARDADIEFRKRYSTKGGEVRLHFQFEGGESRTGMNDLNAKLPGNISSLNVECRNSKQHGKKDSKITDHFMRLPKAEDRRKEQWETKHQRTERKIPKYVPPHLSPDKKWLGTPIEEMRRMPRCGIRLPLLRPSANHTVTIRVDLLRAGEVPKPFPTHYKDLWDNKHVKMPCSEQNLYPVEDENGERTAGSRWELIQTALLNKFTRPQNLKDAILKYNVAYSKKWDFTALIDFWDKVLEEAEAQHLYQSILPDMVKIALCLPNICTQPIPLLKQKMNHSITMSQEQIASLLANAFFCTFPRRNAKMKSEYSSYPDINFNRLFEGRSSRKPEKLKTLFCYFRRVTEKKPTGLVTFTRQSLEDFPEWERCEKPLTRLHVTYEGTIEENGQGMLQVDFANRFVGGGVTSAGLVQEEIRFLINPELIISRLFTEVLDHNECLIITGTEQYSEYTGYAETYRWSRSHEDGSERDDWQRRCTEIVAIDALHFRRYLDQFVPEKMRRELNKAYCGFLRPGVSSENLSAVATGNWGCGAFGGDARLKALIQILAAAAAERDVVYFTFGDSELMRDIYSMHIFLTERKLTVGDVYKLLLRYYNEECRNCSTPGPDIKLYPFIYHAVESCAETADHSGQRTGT

IC50 [1] [nM] | SMILES | IC50 (Kuramochi cell line) [nM]
< 100 | N#CC1(NS(=O)(=O)c2ccc3c4c(C5=CCC(O)CC5)ncnc4n(-c4nnc(C(F)F)s4)c3c2)CC1 (centres unmarked) [Example 84, N-(1-Cyanocyclopropyl)-9-(5-(difluoromethyl)-1,3,4-thiadiazol-2-yl)-4-(4-hydroxycyclohex-1-en-1-yl)-9H-pyrimido[4,5-b]indole-7-sulfonamide] | < 100
< 100 | CCN1CCN(c2ncnc3c2c2ccc(S(=O)(=O)NC4(C#N)CC4)cc2n3-c2nnc(C(F)F)s2)CC1=O [Example 155, N-(1-cyanocyclopropyl)-9-(5-(difluoromethyl)-1,3,4-thiadiazol-2-yl)-4-(4-ethyl-3-oxopiperazin-1-yl)-9H-pyrimido[4,5-b]indole-7-sulfonamide] | < 100
< 100 | CS(=O)(=O)N1CCC(c2ncnc3c2c2ccc(S(=O)(=O)NC4(C#N)CC4)cc2n3-c2nnc(C(F)F)s2)CC1 [Example 121, N-(1-Cyanocyclopropyl)-9-(5-(difluoromethyl)-1,3,4-thiadiazol-2-yl)-4-(1-(methylsulfonyl)piperidin-4-yl)-9H-pyrimido[4,5-b]indole-7-sulfonamide] | < 100

Continued, molecule first:

SMILES | IC50 [1] [nM] | IC50 (Kuramochi cell line) [nM]
CN1CCN(C(=O)N2CCC(c3ncnc4c3c3ccc(S(=O)(=O)NC5(C#N)CC5)cc3n4-c3nnc(C(F)F)s3)CC2)CC1 [Example 141, N-(1-cyanocyclo-propyl)-9-(5-(difluoromethyl)-1,3,4-thiadiazol-2-yl)-4-(1-(4-methylpiperazine-1-carbonyl)piperidin-4-yl)-9H-pyrimido [4,5-b]indole-7-sulfonamide] | < 100 | 100 to 1000
N#CC1(NS(=O)(=O)c2ccc3c4c(C5CCN(C(=O)N6CCCO6)CC5)ncnc4n(-c4nnc(C(F)F)s4)c3c2)CC1 [Example 139] | < 100 | < 100
CC(C)C(=O)N1C=CC(c2ncnc3c2c2cc(F)c(S(=O)(=O)NC4(C#N)CC4)cc2n3-c2nnc(C(F)F)s2)CC1 (centres unmarked) [Example 92, N-(1-Cyanocyclopropyl)-9-(5-(difluoromethyl)-1,3,4-thiadiazol-2-yl)-6-fluoro-4-(1-isobutyryl-1,2,3,4-tetrahydropyridin-4-yl)-9H-pyrimido[4,5-b]indole-7-sulfonamide] | < 100 | < 100
CO[C@@H](C)C(=O)N1CCC(c2ncnc3c2c2ccc(S(=O)(=O)NC4(C#N)CC4)cc2n3-c2nnc(C(F)F)s2)CC1 [Example 108, (S)-N-(1-Cyanocyclopropyl)-9-(5-(difluoromethyl)-1,3,4-thiadiazol-2-yl)-4-(1-(2-methoxypropanoyl)piperidin-4-yl)-9H-pyrimido[4,5-b]indole-7-sulfonamide] | < 100 | < 100
C[C@@H]1CN(C(=O)N(C)C)[C@@H](C)CN1c1ncnc2c1c1ccc(S(=O)(=O)NC3(C#N)CC3)cc1n2-c1nnc(C(F)F)s1 [Example 59, (2S,5R)-4-(7-(N-(1-Cyanocyclopropyl)sulfamoyl)-9-(5-(difluoromethyl)-1,3,4-thiadiazol-2-yl)-9H-pyrimido[4,5-b]indol-4-yl)-N,N,2,5-tetramethylpiperazine-1-carboxamide] | < 100 | < 100
C[C@H]1CN(c2ncnc3c2c2ccc(S(=O)(=O)NC4(C)CC4)cc2n3-c2nnc(C(F)F)s2)CCN1C(=O)N(C)C [Example 101, (S)-4-(9-(5-(Difluoromethyl)-1,3,4-thiadiazol-2-yl)-7-(N-(1-methylcyclopropyl)sulfamoyl)-9H-pyrimido[4,5-b]indol-4-yl)-N,N,2-trimethylpiperazine-1-carboxamide] | < 100 | < 100
N#CC1(NS(=O)(=O)c2ccc3c4c(N5CCN(C(=O)C6CC6(F)F)CC5)ncnc4n(-c4nnc(C(F)F)s4)c3c2)CC1 (centres unmarked) [Example 26, N-(1-Cyanocyclopropyl)-4-(4-(2,2-difluorocyclopropane-1-carbonyl)piperazin-1-yl)-9-(5-(difluoromethyl)-1,3,4-thiadiazol-2-yl)-9H-pyrimido[4,5-b]indole-7-sulfonamide] | < 100 | < 100
